Measurements taken from PubChem BioAssay AID1259407 (Chemical Carcinogenesis Research Information System (CCRIS), 2018).
Calls of active or inactive are those of the source. No rule for the calls is given here.

Test system: CCRIS mutagenicity, Ames/micronucleus/aberration tests
Assay: CCRIS mutagenicity studies
[1] = Test System: AMES SALMONELLA TYPHIMURIUM, Strain/Indicator: TA98, Metabolic Activation: NONE, Method: STANDARD PLATE
[2] = Test System: AMES SALMONELLA TYPHIMURIUM, Strain/Indicator: TA98, Metabolic Activation: RAT, LIVER, S-9, AROCLOR 1254, Method: STANDARD PLATE
[3] = Test System: AMES SALMONELLA TYPHIMURIUM, Strain/Indicator: TA100, Metabolic Activation: NONE, Method: STANDARD PLATE
[4] = Test System: AMES SALMONELLA TYPHIMURIUM, Strain/Indicator: TA100, Metabolic Activation: RAT, LIVER, S-9, AROCLOR 1254, Method: STANDARD PLATE
[5] = Test System: AMES SALMONELLA TYPHIMURIUM, Strain/Indicator: TA1535, Metabolic Activation: NONE, Method: STANDARD PLATE
[6] = Test System: AMES SALMONELLA TYPHIMURIUM, Strain/Indicator: TA1537, Metabolic Activation: NONE, Method: STANDARD PLATE
[7] = Test System: AMES SALMONELLA TYPHIMURIUM, Strain/Indicator: TA1538, Metabolic Activation: NONE, Method: STANDARD PLATE
[8] = Test System: AMES SALMONELLA TYPHIMURIUM, Strain/Indicator: TA100, Metabolic Activation: NONE, Method: PREINCUBATION

C=CC(=O)OCC(C)(C)COC(=O)C=C
mutagenic call [1]: inactive; negative | mutagenic call [2]: inactive; negative | mutagenic call (Test System: AMES SALMONELLA TYPHIMURIUM, Strain/Indicator: TA98, Metabolic Activation: RAT, LIVER, S-9, SODIUM PHENOBARBITAL, Method: STANDARD PLATE): inactive; negative | mutagenic call [3]: inactive; negative | mutagenic call [4]: inactive; negative | mutagenic call (Test System: AMES SALMONELLA TYPHIMURIUM, Strain/Indicator: TA100, Metabolic Activation: RAT, LIVER, S-9, SODIUM PHENOBARBITAL, Method: STANDARD PLATE): inactive; negative | mutagenic call [5]: inactive; negative | mutagenic call (Test System: AMES SALMONELLA TYPHIMURIUM, Strain/Indicator: TA1535, Metabolic Activation: RAT, LIVER, S-9, AROCLOR 1254, Method: STANDARD PLATE): inactive; negative | mutagenic call (Test System: AMES SALMONELLA TYPHIMURIUM, Strain/Indicator: TA1535, Metabolic Activation: RAT, LIVER, S-9, SODIUM PHENOBARBITAL, Method: STANDARD PLATE): inactive; negative | mutagenic call [6]: inactive; negative | mutagenic call (Test System: AMES SALMONELLA TYPHIMURIUM, Strain/Indicator: TA1537, Metabolic Activation: RAT, LIVER, S-9, AROCLOR 1254, Method: STANDARD PLATE): inactive; negative | mutagenic call (Test System: AMES SALMONELLA TYPHIMURIUM, Strain/Indicator: TA1537, Metabolic Activation: RAT, LIVER, S-9, SODIUM PHENOBARBITAL, Method: STANDARD PLATE): inactive; negative | mutagenic call [7]: inactive; negative | mutagenic call (Test System: AMES SALMONELLA TYPHIMURIUM, Strain/Indicator: TA1538, Metabolic Activation: RAT, LIVER, S-9, AROCLOR 1254, Method: STANDARD PLATE): inactive; negative | mutagenic call (Test System: AMES SALMONELLA TYPHIMURIUM, Strain/Indicator: TA1538, Metabolic Activation: RAT, LIVER, S-9, SODIUM PHENOBARBITAL, Method: STANDARD PLATE): inactive; negative

C=CC1(C)CO1 (centres undefined)
mutagenic call (End Point: IN VIVO MICRONUCLEUS, Test System: BONE MARROW POLYCHROMATIC ERYTHROCYTES, Species: MOUSE, Strain/Sex: C57/BL/MALE, Route: INTRAPERITONEAL INJECTION): active; positive | mutagenic call [1]: inactive; negative | mutagenic call [3]: inactive; negative

CCCCCCCCCCCCN(C)N=O
mutagenic call (Test System: AMES SALMONELLA TYPHIMURIUM, Strain/Indicator: TA100, Metabolic Activation: RAT, LIVER, S-9, KC500 OR PHENOBARBITAL, Method: LIQUID SUSPENSION): active; positive

O=C(O)C(Br)Br
mutagenic call (End Point: Ames Salmonella typhimurium, Test System: TA98, Metabolic Activation: Hamster, liver, S-9, Aroclor 1254, Method: Preincubation): inactive; negative | mutagenic call (End Point: Ames Salmonella typhimurium, Test System: TA100, Metabolic Activation: Hamster, liver, S-9, Aroclor 1254, Method: Preincubation): active; positive | mutagenic call (End Point: In vivo micronucleus, Test System: Peripheral blood erythrocytes, Species: Mouse, Strain/Sex: B6C3F1/Female, Route: Oral (drinking water)): inactive; negative (for increased frequencies of micronucleated normochromatic erythrocyte | mutagenic call (End Point: In vivo micronucleus, Test System: Peripheral blood erythrocytes, Species: Mouse, Strain/Sex: B6C3F1/Male, Route: Oral (drinking water)): inactive; positive (for increased frequencies of micronucleated normochromatic erythrocyte | mutagenic call (Test System: AMES SALMONELLA TYPHIMURIUM, Strain/Indicator: RSJ100, Metabolic Activation: NONE, Method: PREINCUBATION): inactive; negative | mutagenic call (Test System: AMES SALMONELLA TYPHIMURIUM, Strain/Indicator: RSJ100, Metabolic Activation: RAT LIVER S-9, Method: PREINCUBATION): inactive; negative | mutagenic call (Test System: AMES SALMONELLA TYPHIMURIUM, Strain/Indicator: TA98, Metabolic Activation: RAT LIVER S-9, Method: PREINCUBATION): active; positive | mutagenic call (Test System: AMES SALMONELLA TYPHIMURIUM, Strain/Indicator: TA98, Metabolic Activation: RAT, LIVER, S-9, PHENOBARBITAL AND 5,6-BENZOFLAVONE, Method: PREINCUBATION): inactive; negative | mutagenic call (Test System: AMES SALMONELLA TYPHIMURIUM, Strain/Indicator: TA100, Metabolic Activation: NONE, Method: FLUCTUATION TEST): active; positive | mutagenic call [8]: active; positive | mutagenic call (Test System: AMES SALMONELLA TYPHIMURIUM, Strain/Indicator: TA100, Metabolic Activation: RAT LIVER S-9, Method: PREINCUBATION): active; positive | mutagenic call (Test System: AMES SALMONELLA TYPHIMURIUM, Strain/Indicator: TA100, Metabolic Activation: RAT, LIVER, S-9, AROCLOR 1254, Method: FLUCTUATION TEST): active; positive | mutagenic call (Test System: AMES SALMONELLA TYPHIMURIUM, Strain/Indicator: TA100, Metabolic Activation: RAT, LIVER, S-9, PHENOBARBITAL AND 5,6-BENZOFLAVONE, Method: PREINCUBATION): active; positive | mutagenic call (Test System: Ames Salmonella typhimurium, Strain/Indicator: TA98, Metabolic Activation: None, Method: Preincubation): inactive; negative | mutagenic call (Test System: Ames Salmonella typhimurium, Strain/Indicator: TA98, Metabolic Activation: Rat, liver, S-9, Aroclor 1254, Method: Preincubation): inactive; negative | mutagenic call (Test System: Ames Salmonella typhimurium, Strain/Indicator: TA100, Metabolic Activation: None, Method: Preincubation): active; positive | mutagenic call (Test System: Ames Salmonella typhimurium, Strain/Indicator: TA100, Metabolic Activation: Rat, liver, S-9, Aroclor 1254, Method: Preincubation): active; positive

Cc1cc(=O)oc2c3c(ccc12)C1(C)OOC1(C)O3 (centres undefined)
mutagenic call [8]: active; positive

COc1cc([N+](=O)[O-])ccc1N
mutagenic call [1]: active; positive | mutagenic call [2]: active; positive

CCN(CC)C(=O)Nc1ccc(OCC(O)CNC(C)(C)C)c(C(C)=O)c1 (centres undefined)
mutagenic call (Test System: AMES SALMONELLA TYPHIMURIUM, Strain/Indicator: TA97, Metabolic Activation: NONE, Method: STANDARD PLATE): inactive; negative | mutagenic call [1]: inactive; negative | mutagenic call [2]: inactive; negative | mutagenic call (Test System: AMES SALMONELLA TYPHIMURIUM, Strain/Indicator: TA98, Metabolic Activation: RAT, S-9, AROCLOR 1254, Method: STANDARD PLATE): inactive; negative | mutagenic call [3]: inactive; negative | mutagenic call [4]: inactive; negative | mutagenic call (Test System: AMES SALMONELLA TYPHIMURIUM, Strain/Indicator: TA100, Metabolic Activation: RAT, S-9, AROCLOR 1254, Method: STANDARD PLATE): inactive; negative | mutagenic call (Test System: AMES SALMONELLA TYPHIMURIUM, Strain/Indicator: TA102, Metabolic Activation: NONE, Method: STANDARD PLATE): inactive; negative | mutagenic call [5]: inactive; negative | mutagenic call (Test System: AMES SALMONELLA TYPHIMURIUM, Strain/Indicator: TA1535, Metabolic Activation: RAT, S-9, AROCLOR 1254, Method: STANDARD PLATE): inactive; negative | mutagenic call [6]: inactive; negative | mutagenic call (Test System: AMES SALMONELLA TYPHIMURIUM, Strain/Indicator: TA1537, Metabolic Activation: RAT, S-9, AROCLOR 1254, Method: STANDARD PLATE): inactive; negative | mutagenic call [7]: inactive; negative | mutagenic call (Test System: AMES SALMONELLA TYPHIMURIUM, Strain/Indicator: TA1538, Metabolic Activation: RAT, S-9, AROCLOR 1254, Method: STANDARD PLATE): inactive; negative | mutagenic call (Test System: E. COLI, Strain/Indicator: WP2, Metabolic Activation: NONE, Method: STANDARD PLATE): inactive; negative | mutagenic call (Test System: E. COLI, Strain/Indicator: WP2, Metabolic Activation: RAT, S-9, AROCLOR 1254, Method: STANDARD PLATE): inactive; negative | mutagenic call (Test System: E. COLI, Strain/Indicator: WP2 UVRA, Metabolic Activation: NONE, Method: STANDARD PLATE): inactive; negative | mutagenic call (Test System: E. COLI, Strain/Indicator: WP2 UVRA, Metabolic Activation: RAT, S-9, AROCLOR 1254, Method: STANDARD PLATE): inactive; negative

O=S(=O)(O)c1cc(N=Nc2ccc(O)cc2)ccc1C=Cc1ccc(N=Nc2ccc(O)cc2)cc1S(=O)(=O)O
mutagenic call (Test System: MOUSE LYMPHOMA, Strain/Indicator: L5178Y (TK+/TK-), Metabolic Activation: NONE, Method: SUSPENSION/PLATE): inactive; negative. reevaluation of results: negative | mutagenic call (Test System: MOUSE LYMPHOMA, Strain/Indicator: L5178Y (TK+/TK-), Metabolic Activation: RAT, LIVER, S-9, AROCLOR 1254, Method: SUSPENSION/PLATE): inactive; negative. reevaluation of results: negative
